This note sets out measurements from patent US12378279B2, “Nicotinamide riboside hydrogen malate crystal, and its preparation method and application” (priority 2024, dated 2025).

Series [1] is described as follows: Color change and hygroscopicity of products exposed to air (Karl Fischer moisture). It is filed as physicochemical. The note with it: RH 40%. The procedure:
The nicotinamide riboside hydrogen malate crystal products obtained from the above Examples and Comparative Examples were respectively exposed to air (air humidity and temperature were controlled). […] Moisture (Karl Fischer) determination method was performed using an MC-2000 automatic micro-moisture analyzer from Mince Instruments (Xiamen) Co., Ltd., and a karl fischer reagent from Nanjing Chemical Reagent Co., Ltd.

A short description of series [2]: Stability comparison: HPLC purity of samples sealed in polyethylene bags in a constant-temperature-humidity chamber. It is filed as physicochemical. The conditions noted are these: 25° C., RH 40%, sealed PE bag; for Decomposition rate on day 6: (initial sample purity−sample purity)/initial sample purity×100%. The procedure: The nicotinamide riboside hydrogen malate crystal obtained from the above Examples and Comparative Examples products was sealed in polyethylene (PE) bags, with 1 gram per bag. […] Samples were tested at regular intervals. Sample solution was prepared through the following steps. […] Then, the sample solution was filtered through a membrane, and the sample purity was determined using high performance liquid chromatography (HPLC).

The nature of series [3]: Stability comparison: HPLC purity of samples in covered, sealed glass dishes in a constant-temperature-humidity chamber. The note with it: 25° C., relative humidity 40%; for Decomposition rate over 6 days: (initial sample purity−sample purity)/initial sample purity×100%; for Purity: sealed glass dish. The protocol: The nicotinamide riboside hydrogen malate crystal obtained herein and the commercially-available nicotinamide riboside hydrogen malate crystal samples (A and B) were each divided into seven portions and separately placed into seven glass sample dishes, with 1 g of sample in each dish. The dishes were covered and sealed. All the samples were stored in a constant-temperature-humidity chamber at 25° C. and a relative humidity of 40%. The purity of the samples was tested daily. The decomposition rate was calculated using the following formula: decomposition rate=(initial sample purity−sample purity)/initial sample purity×100%.
Product purity analysis was performed through the following steps. One packet of the sample was dissolved in a 5 mL or 10 mL volumetric flask to prepare a 5 mL or 10 mL sample solution. Then, the purity of the sample was determined using high performance liquid chromatography (HPLC).
The high performance liquid chromatography (HPLC) method parameters were as follows: isocratic elution with 5% water (0.1% formic acid) and 95% methanol (0.1% formic acid) as the mobile phase, a wavelength of 254 nm, a temperature of 23.0° C. with 54% relative humidity, samples dissolved in methanol, an ODS-2 column (4.6×250 mm, […]) with pressure maintained at 12-13 MPa, a flow rate of 1.0 mL/min, an injection volume of […] and a run time greater than or equal to 15 min.

The conditions of series [4]: at 112-200° C., heating rate 10° C./min, nitrogen. The protocol: Thermogravimetric analysis (TGA) was performed using a TGA55 instrument from TA Instruments, USA, with a temperature range of 14.8-300° C., a heating rate of 10° C./min and a nitrogen flow rate of 40 mL/min.

The molecule `NC(=O)c1ccc[n+]([C@@H]2O[C@H](CO)[C@@H](O)[C@H]2O)c1.O=C(O)CC(O)C(=O)[O-]` [Example 2, nicotinamide riboside hydrogen malate] yielded a Product moisture in series [1] (Day 0, 25° C., listed as EXAMPLE 2) of 0.28%. Moreover, the Product moisture in series [1] (Day 6, 25° C., listed as EXAMPLE 2) came to 3.1%. For the same molecule, in series [2] (listed as EXAMPLE 2), the “Purity on day 6” value was 98.97%, the Initial purity amounted to 99.72% and the “Decomposition rate on day 6” value worked out at 0.75%.
In the case of `NC(=O)c1ccc[n+]([C@@H]2O[C@H](CO)[C@@H](O)[C@H]2O)c1.O=C(O)CC(O)C(=O)[O-]` [Example 1, nicotinamide riboside hydrogen malate], the “Stability compared to the commercially-available products” value in series [3] (6 days) was “better stability”. Also, in series [3] (listed as Product of Example 1), the “Decomposition rate over 6 days” value stood at 0.759%. Also, the Purity came out at 99.576% in series [3] (day 0, listed as Product of Example 1); 99.553% in series [3] (day 1, listed as Product of Example 1); 99.494% in series [3] (day 2, listed as Product of Example 1); 99.510% in series [3] (day 3, listed as Product of Example 1); 99.518% in series [3] (day 4, listed as Product of Example 1); 99.499% in series [3] (day 5, listed as Product of Example 1). The Purity in series [3] (day 6, listed as Product of Example 1) was found to be 98.820%. Further, the Product moisture worked out at 0.30% in series [1] (Day 0, 25° C., listed as EXAMPLE 1) and 2% in series [1] (Day 6, 25° C., listed as EXAMPLE 1). Further, the “Purity on day 6” value in series [2] (listed as EXAMPLE 1) was found to be 99.65%. In addition, in series [2] (listed as EXAMPLE 1), the Initial purity came out at 99.67%. Further, in series [2] (listed as EXAMPLE 1), the “Decomposition rate on day 6” value came to 0.72%. Moreover, the “Weight loss (TGA)” value in series [4] was 1-33%.
As for `NC(=O)c1ccc[n+]([C@@H]2O[C@H](CO)[C@@H](O)[C@H]2O)c1.O=C(O)CC(O)C(=O)[O-]` [Commercially-available product A, nicotinamide riboside hydrogen malate], the “Decomposition rate over 6 days” value in series [3] is 8.37%. Besides, the Purity in series [3] (day 0) is recorded as 99.900%; in series [3] (day 1) it was 98.355%; in series [3] (day 2), 96.843%; in series [3] (day 3), 95.752%; in series [3] (day 4) it was 94.185%; in series [3] (day 5) it was 93.250%. This molecule also returned a Purity in series [3] (day 6) of 91.538%.
`NC(=O)c1ccc[n+]([C@@H]2O[C@H](CO)[C@@H](O)[C@H]2O)c1.O=C(O)CC(O)C(=O)[O-]` [Example 4, nicotinamide riboside hydrogen malate] had a Product moisture in series [1] (Day 0, 25° C., listed as EXAMPLE 4) of 0.22%. For the same molecule, the Product moisture in series [1] (Day 6, 25° C., listed as EXAMPLE 4) worked out at 1.8%. For the same molecule, in series [2] (listed as EXAMPLE 4), the “Purity on day 6” value is listed as 98.79%, the Initial purity was 99.51% and the “Decomposition rate on day 6” value is 0.72%.
For `NC(=O)c1ccc[n+]([C@@H]2O[C@H](CO)[C@@H](O)[C@H]2O)c1.O=C(O)CC(O)C(=O)[O-]` [Example 5, nicotinamide riboside hydrogen malate], the Product moisture in series [1] (Day 0, 25° C., listed as EXAMPLE 5) is 0.31%. In addition, in series [1] (Day 6, 25° C., listed as EXAMPLE 5), the Product moisture is given as 2.9%. Also, in series [2] (listed as EXAMPLE 5), the “Purity on day 6” value worked out at 99.15%, the Initial purity is recorded as 99.78% and the “Decomposition rate on day 6” value is listed as 0.63%.
Turning to `NC(=O)c1ccc[n+]([C@@H]2O[C@H](CO)[C@@H](O)[C@H]2O)c1.O=C(O)CC(O)C(=O)[O-]` [Example 3, nicotinamide riboside hydrogen malate], in series [1] (Day 0, 25° C.), the Product appearance result is reported as “White”. Besides, the Product moisture in series [1] (Day 0, 25° C., listed as EXAMPLE 3) is 0.30%. In addition, in series [1] (Day 6, 25° C.), the Product appearance entry is “White”. In series [1] (Day 6, 25° C., listed as EXAMPLE 3), this molecule came in with a Product moisture of 2.4%. For the same molecule, in series [2] (listed as EXAMPLE 3), the “Purity on day 6” value amounted to 98.95%, the Initial purity is 99.69% and the “Decomposition rate on day 6” value is listed as 0.74%.
For the molecule `NC(=O)c1ccc[n+]([C@@H]2O[C@H](CO)[C@@H](O)[C@H]2O)c1.O=C(O)CC(O)C(=O)[O-]` [Commercially-available product B, nicotinamide riboside hydrogen malate], the “Decomposition rate over 6 days” value in series [3] stood at 4.77%. Besides, the Purity in series [3] (day 0) is reported as 99.750%; in series [3] (day 1) it was 98.843%; in series [3] (day 2) it was 98.310%; in series [3] (day 3), 97.982%; in series [3] (day 4), 96.530%; in series [3] (day 5), 95.020%. The same molecule registered a Purity in series [3] (day 6) of 94.989%.
On to `NC(=O)c1ccc[n+]([C@@H]2O[C@H](CO)[C@@H](O)[C@H]2O)c1.O=C(O)CC(O)C(=O)[O-]` [Example 6, nicotinamide riboside hydrogen malate], for which the Product moisture in series [1] (Day 0, 25° C., listed as EXAMPLE 6) was found to be 0.29%. This molecule also displayed a Product moisture in series [1] (Day 6, 25° C., listed as EXAMPLE 6) of 3.2%. Besides, in series [2] (listed as EXAMPLE 6), the “Purity on day 6” value is given as 99.11%, the Initial purity was found to be 99.81% and the “Decomposition rate on day 6” value is given as 0.70%.
